# Measured values as given in PubChem BioAssay (NCI).
# “And” between values parts separate entries of the source, which are not always exact repeats. Identical values can stand only once.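 Interpolation was linear, between the two tested concentrations surrounding the appropriate level; five concentrations were tested over 48 hours in 96-well plates. GI50: concentration for 50% inhibition of growth. The concentration for full growth arrest is given as TGI.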
# Key:
# Assay in all cases: growth of human tumour cells (NCI), 48 h
# [1] = tested on: MCF7 breast
# [2] = tested on: SNB-75 CNS
# [3] = tested on: SK-OV-3 ovarian
# [4] = tested on: EKVX NSCLC
# [5] = tested on: A498 renal
# [6] = tested on: OVCAR-8 ovarian
# [7] = tested on: LOX IMVI melanoma
# [8] = tested on: HCT-15 colon
# [9] = tested on: MDA-N
# [10] = tested on: LXFL 529 NSCLC
SMILES,GI50 [1],TGI [1],GI50 [2],TGI [2],GI50 [3],TGI [3],GI50 [4],TGI [4],GI50 [5],TGI [5],GI50 [6],TGI [6],GI50 [7],TGI [7],GI50 [8],TGI [8],TGI [9],GI50 [9],TGI [10],GI50 [10]
O=C1c2cccc3cccc(c23)C(=O)N1CC#Cc1ccc2c3c(cccc13)C(=O)N(CCN1CCNCC1)C2=O,1.8 µM,3.72 µM,4.49 µM,19.9 µM,25.7 µM,62.6 µM,15.7 µM,39.7 µM,15.4 µM,31.1 µM,2.18 µM,5.16 µM,1.94 µM,3.87 µM,14.9 µM,> 100 µM,–,–,–,–
O=[N+]([O-])c1ccc(N/N=C/c2ccccc2O)nc1,0.928 µM,> 100 µM,10.6 µM,> 100 µM,2.54 µM,> 100 µM,3.58 µM,> 100 µM,63.4 µM,> 100 µM,0.407 µM,51.2 µM,0.92 µM,> 100 µM,0.639 µM,> 100 µM,–,–,–,–
Cc1cc(Br)c2nsnc2c1[N+](=O)[O-],0.391 µM,3.02 µM,3.46 µM,15.4 µM,13.5 µM,26.4 µM,1.76 µM,5.73 µM,5.06 µM,15 µM,3.18 µM,12.1 µM,0.94 µM,3.07 µM,4.28 µM,18.4 µM,–,–,–,–
CC(=O)Nc1c(I)c(C(=O)O)c(I)c(N(C)C(C)=O)c1I,> 100 µM,> 100 µM,> 100 µM,> 100 µM,> 100 µM,> 100 µM,> 100 µM,> 100 µM,> 100 µM,> 100 µM,> 100 µM,> 100 µM,> 100 µM,> 100 µM,> 100 µM,> 100 µM,–,–,–,–
CCc1ccc(Oc2nccc(-c3c(-c4ccc(F)cc4)ncn3C3CCNCC3)n2)cc1,4.39 µM,8.37 µM,3.58 µM,10.7 µM,4.37 µM,9.21 µM,7.2 µM,14.2 µM,3.55 µM,9.82 µM,4.7 µM,10.6 µM,4.78 µM,10.2 µM,6.35 µM,15.8 µM,–,–,–,–
C=C1C(=O)O[C@H]2[C@H]1CC/C(COC(=O)c1cccc3ccccc13)=C\CC[C@@]1(C)O[C@@H]21,0.722 µM,2.84 µM,3.04 µM,13.3 µM,11.6 µM,23.7 µM,1.81 µM,3.94 µM,14.5 µM,28.4 µM,1.7 µM,5.42 µM,1.35 µM,2.8 µM,1.19 µM,2.89 µM,–,–,–,–
Oc1[nH]c2ccc(Cl)cc2c1/C=c1/ccc2c(c1)N=C(c1ccc(C(F)(F)F)cc1)N=2,2.25 µM,7.64 µM,2.03 µM,7.51 µM,4.19 µM,13.9 µM,3.16 µM,18.3 µM,1.32 µM,4.17 µM,3.17 µM,11.4 µM,1.77 µM,3.42 µM,2.64 µM,8.91 µM,–,–,–,–
NC(Cn1ccc(=O)c(O)c1)C(=O)O (centres undefined),–,> 100 µM,–,–,–,> 100 µM,–,> 100 µM,–,> 100 µM,–,> 100 µM,–,> 100 µM,–,> 100 µM,> 100 µM,–,–,–
O=S(=O)(CC(O)C(Cl)(Cl)Cl)NNc1ccccc1 (centres undefined),–,> 100 µM,–,> 100 µM,–,> 100 µM,–,> 100 µM,–,> 100 µM,–,> 100 µM,–,> 100 µM,–,> 100 µM,> 100 µM,–,–,–
O=NNc1ccc(Sc2ccc3ccccc3c2)cn1,–,> 100 µM,–,> 100 µM,–,> 100 µM,–,> 100 µM,–,> 100 µM,–,> 100 µM,–,–,–,60 µM,> 100 µM,–,–,–
O=C1/C(=C\c2ccc([N+](=O)[O-])cc2)CS(=O)(=O)C/C1=C/c1ccc([N+](=O)[O-])cc1,0.157 µM,2.12 µM,–,53.2 µM,–,15.5 µM,0.348 µM,4.95 µM,0.332 µM,0.966 µM and 3.37 µM,0.0764 µM,0.93 µM,0.0309 µM,–,0.058 µM,0.258 µM and 0.638 µM,1.63 µM,0.305 µM,–,–
CCOc1ccc(/C=N\N2C(=O)c3ccccc3C2=O)cc1,–,–,–,> 100 µM,–,–,–,> 100 µM,–,> 100 µM,–,> 100 µM,–,> 100 µM,–,> 100 µM,–,–,> 100 µM,–
COc1ccc(C2=NNC(c3cc(Cc4ccc(O)c(C5CC(c6ccc(OC)cc6)=NN5)c4)ccc3O)C2)cc1 (centres undefined),3.3 µM,15 µM,4.98 µM,> 100 µM,31.6 µM,> 100 µM,23.3 µM,> 100 µM,71.9 µM,> 100 µM,6.36 µM,> 100 µM,7.38 µM,32.3 µM,3.64 µM,> 100 µM,–,–,–,–
CC(N)CN.CC(N)CN.[Cl-].[O]=[Os+2]=[O] (centres undefined),–,–,> 100 µM,> 100 µM,–,–,> 100 µM,> 100 µM,–,–,96.2 µM,> 100 µM,27 µM,> 100 µM,> 100 µM,> 100 µM,–,–,> 100 µM,53.1 µM
C=C(CS(=O)(=O)c1ccccc1)C(=O)OCC,–,–,–,32 µM,–,28 µM,–,39.9 µM,–,–,–,22.4 µM,–,24.2 µM,–,35 µM,–,–,27 µM,–
COc1ccc(/C=C/c2ccnc3ccccc23)cc1,–,31.4 µM,–,–,–,33.5 µM,–,25.8 µM,–,27.9 µM,–,–,–,31 µM,–,39.6 µM,31.6 µM,–,–,–
CN(C(=O)C12C3C4C1C1C2C3C41C(=O)N(C)C(C)(C)C)C(C)(C)C (centres undefined),–,–,–,> 50 µM,–,> 50 µM,–,> 50 µM,–,> 50 µM,–,> 50 µM,–,–,–,> 50 µM,–,–,> 50 µM,–
O=C1c2ccccc2-c2c1c1c(O)cccc1n2CCCc1ccccc1,48.4 µM,> 100 µM,51.7 µM,> 100 µM,84.3 µM,> 100 µM,10.3 µM,98.3 µM,17.3 µM,43.2 µM,31.7 µM,> 100 µM,43.9 µM,> 100 µM,4.11 µM,> 100 µM,–,–,–,–
